This experiment deals with Mab TrmD (Mycobacteroides abscessus, UniProt B1MDI3). As to the kind of experiment: Isothermal titration calorimetry (ITC). The experiment is classed as binding. The conditions noted are these: for LE: ligand efficiency; for GE (R^1): group efficiency of R^1; for GE: group efficiency of the added group.

The structures appear in SMILES notation.

Chain of Mab TrmD (B1MDI3 entry or part of it): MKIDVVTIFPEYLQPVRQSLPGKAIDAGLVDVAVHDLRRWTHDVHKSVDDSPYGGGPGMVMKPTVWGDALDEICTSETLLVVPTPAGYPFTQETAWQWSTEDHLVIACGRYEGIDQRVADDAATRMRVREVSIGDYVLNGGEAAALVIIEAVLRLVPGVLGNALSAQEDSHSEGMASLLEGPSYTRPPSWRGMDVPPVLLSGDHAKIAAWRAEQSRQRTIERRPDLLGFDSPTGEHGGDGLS

Consider `CCOC(=O)c1cn[nH]c1` [Compound 1, ethyl 1H-pyrazole-4-carboxylate], for which the LE was 0.55 kcal mol^–1 per heavy atom. In addition, the LE (Table 1) is given as 0.55 kcal mol^–1 per heavy atom.
With `O=C(OCc1ccccc1)c1cn[nH]c1` [Compound 3, Benzyl 1H-Pyrazole-4-carboxylate], the LE was 0.41 kcal mol^–1 per heavy atom. Moreover, under “Table 1”, the LE was 0.41 kcal mol^–1 per heavy atom.
`N#Cc1cccc(COC(=O)c2cn[nH]c2)c1` [Compound 6, 3-Cyanobenzyl 1H-Pyrazole-4-carboxylate]: the LE (Table 1) is 0.36 kcal mol^–1 per heavy atom.
Consider `COc1cccc(COC(=O)c2cn[nH]c2)c1` [Compound 7, 3-Methoxybenzyl 1H-Pyrazole-4-carboxylate], for which the LE is on record as 0.39 kcal mol^–1 per heavy atom. The LE (Table 1) is listed as 0.39 kcal mol^–1 per heavy atom.
Turning to `COC(=O)COc1cccc(COC(=O)c2cn[nH]c2)c1` [Compound 8, 3-(2-Methoxy-2-oxoethoxy)benzyl 1H-Pyrazole-4-carboxylate], the LE was 0.32 kcal mol^–1 per heavy atom. Further, the LE (Table 2) is 0.32 kcal mol^–1 per heavy atom.
Regarding `CCOc1cccc(COC(=O)c2cn[nH]c2)c1` [Compound 10, 3-Ethoxybenzyl 1H-Pyrazole-4-carboxylate], the LE is 0.38 kcal mol^–1 per heavy atom. Further, where the note is “Table 2”, the LE is 0.38 kcal mol^–1 per heavy atom.
As for `CCOC(=O)c1cnn(CC#Cc2cc(COC(=O)c3cn[nH]c3)cc(OC)c2)c1` [Compound 12, Ethyl 1-(3-(3-(((1H-Pyrazole-4-carbonyl)oxy)methyl)-5-methoxyphenyl)prop-2-yn-1-yl)-1H-pyrazole-4-carboxylate], the LE is listed as 0.24 kcal mol^–1 per heavy atom. Also, the LE (Table 2) is listed as 0.24 kcal mol^–1 per heavy atom.
In the case of `COc1cc(COC(=O)c2cn[nH]c2)cc(N2CCCC2)c1` [Compound 13, 3-Methoxy-5-(pyrrolidin-1-yl)benzyl 1H-Pyrazole-4-carboxylate], the LE is 0.31 kcal mol^–1 per heavy atom. For the setting “Table 2”, the LE is recorded as 0.31 kcal mol^–1 per heavy atom.
Turning to `COc1cc(COC(=O)c2cn[nH]c2)cc(-c2cccnc2)c1` [Compound 14, 3-Methoxy-5-(pyridin-3-yl)benzyl 1H-Pyrazole-4-carboxylate], the LE was 0.31 kcal mol^–1 per heavy atom. Moreover, the LE (Table 2) is 0.31 kcal mol^–1 per heavy atom.
Turning to `COc1cc(COC(=O)c2cn[nH]c2)cc(Cc2cccnc2)c1` [Compound 15], the LE is listed as 0.28 kcal mol^–1 per heavy atom. Further, for the setting “Table 2”, the LE was 0.28 kcal mol^–1 per heavy atom.
Consider `COc1ccc(Cn2ccc3ccc(-c4cc(N)n[nH]4)cc32)cc1` [Compound 24a, 5-(1-(4-Methoxybenzyl)-1H-indol-6-yl)-1H-pyrazol-3-amine], for which the LE is 0.24 kcal mol^–1 per heavy atom. Moreover, for the setting “Table 4”, the “GE (R^1)” value was 0.04 kcal mol^–1 per heavy atom and the LE is 0.24 kcal mol^–1 per heavy atom.
Turning to `COc1cccc(Cn2ccc3ccc(-c4cc(N)n[nH]4)cc32)c1` [Compound 24b, 5-(1-(3-Methoxybenzyl)-1H-indol-6-yl)-1H-pyrazol-3-amine], the GE is 0.14 kcal mol^–1 per heavy atom and the LE is 0.28 kcal mol^–1 per heavy atom. Where the note is “Table 4”, the “GE (R^1)” value is 0.14 kcal mol^–1 per heavy atom and the LE is listed as 0.28 kcal mol^–1 per heavy atom.
As to `N#Cc1ccccc1Cn1ccc2ccc(-c3cc(N)n[nH]3)cc21` [Compound 24d, 2-((6-(3-Amino-1H-pyrazol-5-yl)-1H-indol-1-yl)methyl)benzonitrile], the LE is reported as 0.28 kcal mol^–1 per heavy atom. Besides, for the setting “Table 4”, the “GE (R^1)” value is listed as 0.15 kcal mol^–1 per heavy atom and the LE is listed as 0.28 kcal mol^–1 per heavy atom.
For the molecule `N#Cc1c(N)n[nH]c1-c1ccc2cc[nH]c2c1` [Compound 25, 3-Amino-5-(1H-indol-6-yl)-1H-pyrazole-4-carbonitrile], the GE is 0.91 kcal mol^–1 per heavy atom and the LE is reported as 0.43 kcal mol^–1 per heavy atom. Besides, for the setting “Table 4”, the LE is recorded as 0.43 kcal mol^–1 per heavy atom.
With `N#Cc1c(N)n[nH]c1-c1ccc2ccn(Cc3cccnc3)c2c1` [Compound 26g, 3-Amino-5-(1-(pyridin-3-ylmethyl)-1H-indol-6-yl)-1H-pyrazole-4-carbonitrile], the “fold improvement in binding affinity (decrease of Kd) relative to 26f” value is “greater than 2 fold” and the LE is recorded as 0.38 kcal mol^–1 per heavy atom. For the same molecule, under “Table 5”, the “GE (R^1)” value is on record as 0.28 kcal mol^–1 per heavy atom and the LE is 0.38 kcal mol^–1 per heavy atom.
Consider `N#Cc1c(N)n[nH]c1-c1ccc2ccn(Cc3cccnc3O)c2c1` [Compound 26j, 3-Amino-5-(1-((2-hydroxypyridin-3-yl)methyl)-1H-indol-6-yl)-1H-pyrazole-4-carbonitrile], for which the LE was 0.30 kcal mol^–1 per heavy atom. For the setting “Table 5”, the “GE (R^1)” value is recorded as 0.03 kcal mol^–1 per heavy atom and the LE is recorded as 0.30 kcal mol^–1 per heavy atom.
Take `N#Cc1c(N)n[nH]c1-c1ccc2ccn(Cc3ccc(O)nc3)c2c1` [Compound 26k, 3-Amino-5-(1-((6-hydroxypyridin-3-yl)methyl)-1H-indol-6-yl)-1H-pyrazole-4-carbonitrile]: the LE is reported as 0.32 kcal mol^–1 per heavy atom. For the same molecule, under “Table 5”, the “GE (R^1)” value is given as 0.10 kcal mol^–1 per heavy atom and the LE was 0.32 kcal mol^–1 per heavy atom.
With `N#Cc1c(N)n[nH]c1-c1ccc2ccn(Cc3ccncc3)c2c1` [Compound 26l, 3-Amino-5-(1-(pyridin-4-ylmethyl)-1H-indol-6-yl)-1H-pyrazole-4-carbonitrile], the “fold improvement in binding affinity (decrease of Kd) relative to 26f” value came out at 4 fold and the LE is given as 0.39 kcal mol^–1 per heavy atom. Further, for the setting “Table 5”, the “GE (R^1)” value is on record as 0.31 kcal mol^–1 per heavy atom and the LE is recorded as 0.39 kcal mol^–1 per heavy atom.
For the molecule `CN1CCCCC1Cn1ccc2ccc(-c3[nH]nc(N)c3C#N)cc21` (centres unmarked) [Compound 26n, 3-Amino-5-(1-((1-methylpiperidin-2-yl)methyl)-1H-indol-6-yl)-1H-pyrazole-4-carbonitrile], the LE is reported as 0.34 kcal mol^–1 per heavy atom. Besides, under “Table 5”, the “GE (R^1)” value was 0.16 kcal mol^–1 per heavy atom and the LE is 0.34 kcal mol^–1 per heavy atom.
In the case of `CN1CCCC(Cn2ccc3ccc(-c4[nH]nc(N)c4C#N)cc32)C1` (centres unmarked) [Compound 26o, 3-Amino-5-(1-((1-methylpiperidin-3-yl)methyl)-1H-indol-6-yl)-1H-pyrazole-4-carbonitrile], the LE is on record as 0.35 kcal mol^–1 per heavy atom. Also, for the setting “Table 5”, the “GE (R^1)” value was 0.20 kcal mol^–1 per heavy atom and the LE is given as 0.35 kcal mol^–1 per heavy atom.
On to `N#Cc1c(N)n[nH]c1-c1ccc2c(Cl)cn(Cc3cccnc3)c2c1` [Compound 27g, 3-Amino-5-(3-chloro-1-(pyridin-3-ylmethyl)-1H-indol-6-yl)-1H-pyrazole-4-carbonitrile], for which the LE was 0.28 kcal mol^–1 per heavy atom. Also, for the setting “Table 5”, the LE is 0.28 kcal mol^–1 per heavy atom.
On to `N#Cc1c(N)n[nH]c1-c1ccc2ccn(Cc3ccc(CN4CCCCC4)cc3)c2c1` [Compound 29b, 3-Amino-5-(1-(4-(piperidin-1-ylmethyl)benzyl)-1H-indol-6-yl)-1H-pyrazole-4-carbonitrile], for which, for the setting “Table 6”, the dissociation constant (Kd) was 70 ± 29 nM and the LE is recorded as 0.31 kcal mol^–1 per heavy atom.

The record behind these values is article PMC6691401 (Journal of Medicinal Chemistry, 2019).
